Reference: ChEMBL document CHEMBL4507268 (2021)

Columns and labels:
Settings in all cases: Compound concentration 1.0 uM
[1] = molecular target: PI3K p110 beta/p85 alpha (Homo sapiens) (UniProt P27986+P42338)
[2] = molecular target: Serine/threonine-protein kinase 25 (Homo sapiens) (UniProt O00506)
[3] = molecular target: T1, Myosin-IIIb (Homo sapiens) (UniProt Q8WXR4)
T1 sequence (whole entry): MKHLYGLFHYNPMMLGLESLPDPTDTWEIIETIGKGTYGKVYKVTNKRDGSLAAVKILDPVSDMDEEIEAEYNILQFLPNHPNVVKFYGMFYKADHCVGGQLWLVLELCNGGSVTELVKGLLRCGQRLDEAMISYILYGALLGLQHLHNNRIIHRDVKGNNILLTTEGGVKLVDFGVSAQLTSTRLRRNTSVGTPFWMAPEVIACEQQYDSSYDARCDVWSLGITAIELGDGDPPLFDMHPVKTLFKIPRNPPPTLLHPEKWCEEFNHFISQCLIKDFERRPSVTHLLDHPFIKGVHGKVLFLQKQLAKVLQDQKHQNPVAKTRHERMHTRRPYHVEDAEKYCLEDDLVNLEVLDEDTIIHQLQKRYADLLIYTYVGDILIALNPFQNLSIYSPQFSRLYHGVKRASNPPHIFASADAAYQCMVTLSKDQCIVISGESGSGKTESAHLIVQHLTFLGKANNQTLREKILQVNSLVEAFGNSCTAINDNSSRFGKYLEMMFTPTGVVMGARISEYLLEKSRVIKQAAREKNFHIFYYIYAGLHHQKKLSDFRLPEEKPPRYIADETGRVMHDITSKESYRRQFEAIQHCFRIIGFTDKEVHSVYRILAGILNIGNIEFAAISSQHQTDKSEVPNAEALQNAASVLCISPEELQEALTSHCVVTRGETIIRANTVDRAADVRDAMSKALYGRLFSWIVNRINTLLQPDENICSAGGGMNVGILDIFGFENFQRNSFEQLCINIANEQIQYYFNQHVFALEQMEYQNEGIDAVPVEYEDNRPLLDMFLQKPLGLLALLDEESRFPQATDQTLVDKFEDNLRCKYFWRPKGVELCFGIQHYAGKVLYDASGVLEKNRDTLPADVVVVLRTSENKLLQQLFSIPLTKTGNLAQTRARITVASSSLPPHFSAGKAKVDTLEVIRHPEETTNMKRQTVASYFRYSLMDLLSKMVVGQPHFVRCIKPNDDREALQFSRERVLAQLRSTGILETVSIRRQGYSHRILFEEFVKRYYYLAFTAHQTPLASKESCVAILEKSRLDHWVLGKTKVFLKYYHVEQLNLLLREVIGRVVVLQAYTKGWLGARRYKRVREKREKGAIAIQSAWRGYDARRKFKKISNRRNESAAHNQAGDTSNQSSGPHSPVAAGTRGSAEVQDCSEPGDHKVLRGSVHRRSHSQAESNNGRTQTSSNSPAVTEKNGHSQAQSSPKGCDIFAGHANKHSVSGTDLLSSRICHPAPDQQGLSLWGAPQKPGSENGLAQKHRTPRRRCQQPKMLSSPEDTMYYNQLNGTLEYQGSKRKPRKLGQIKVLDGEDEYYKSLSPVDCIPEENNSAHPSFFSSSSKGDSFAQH

[4] = molecular target: Rho-associated protein kinase 2 (Homo sapiens) (UniProt O75116)
[5] = molecular target: Serine/threonine-protein kinase PLK1 (Homo sapiens) (UniProt P53350)
[6] = molecular target: T2, Homeodomain-interacting protein kinase 4 (Homo sapiens) (UniProt Q8NE63)
T2 sequence (whole entry): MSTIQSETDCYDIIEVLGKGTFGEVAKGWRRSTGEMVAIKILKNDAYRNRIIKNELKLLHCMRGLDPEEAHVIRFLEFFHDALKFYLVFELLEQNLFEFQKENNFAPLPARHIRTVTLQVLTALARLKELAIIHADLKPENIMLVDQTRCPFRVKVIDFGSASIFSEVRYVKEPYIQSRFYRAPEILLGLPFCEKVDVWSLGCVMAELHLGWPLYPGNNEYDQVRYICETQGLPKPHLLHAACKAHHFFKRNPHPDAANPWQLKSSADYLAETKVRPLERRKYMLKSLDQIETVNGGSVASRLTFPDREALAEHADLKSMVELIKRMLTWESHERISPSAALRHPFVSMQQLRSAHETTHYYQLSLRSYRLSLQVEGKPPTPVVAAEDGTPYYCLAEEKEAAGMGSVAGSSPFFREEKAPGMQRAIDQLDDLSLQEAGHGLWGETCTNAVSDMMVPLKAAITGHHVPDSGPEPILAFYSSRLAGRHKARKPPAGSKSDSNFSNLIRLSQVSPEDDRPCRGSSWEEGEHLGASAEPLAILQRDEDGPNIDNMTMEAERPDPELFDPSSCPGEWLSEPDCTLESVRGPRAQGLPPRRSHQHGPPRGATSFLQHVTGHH

[7] = molecular target: T3, Testis-specific serine/threonine-protein kinase 3 (Homo sapiens) (UniProt Q96PN8)
T3 sequence (whole entry): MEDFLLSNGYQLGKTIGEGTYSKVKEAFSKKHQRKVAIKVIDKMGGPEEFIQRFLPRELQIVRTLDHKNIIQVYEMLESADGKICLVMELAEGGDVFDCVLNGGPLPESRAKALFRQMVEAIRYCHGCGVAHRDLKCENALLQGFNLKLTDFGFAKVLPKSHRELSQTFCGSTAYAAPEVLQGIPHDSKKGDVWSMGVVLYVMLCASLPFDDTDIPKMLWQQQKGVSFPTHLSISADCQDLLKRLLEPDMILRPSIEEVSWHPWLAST

[8] = molecular target: Testis-specific serine/threonine-protein kinase 4 (Homo sapiens) (UniProt Q6SA08)

Measured: % residual kinase activity

Sequence of PI3K p110 beta/p85 alpha (Homo sapiens) (P27986 2-724 limits assumed): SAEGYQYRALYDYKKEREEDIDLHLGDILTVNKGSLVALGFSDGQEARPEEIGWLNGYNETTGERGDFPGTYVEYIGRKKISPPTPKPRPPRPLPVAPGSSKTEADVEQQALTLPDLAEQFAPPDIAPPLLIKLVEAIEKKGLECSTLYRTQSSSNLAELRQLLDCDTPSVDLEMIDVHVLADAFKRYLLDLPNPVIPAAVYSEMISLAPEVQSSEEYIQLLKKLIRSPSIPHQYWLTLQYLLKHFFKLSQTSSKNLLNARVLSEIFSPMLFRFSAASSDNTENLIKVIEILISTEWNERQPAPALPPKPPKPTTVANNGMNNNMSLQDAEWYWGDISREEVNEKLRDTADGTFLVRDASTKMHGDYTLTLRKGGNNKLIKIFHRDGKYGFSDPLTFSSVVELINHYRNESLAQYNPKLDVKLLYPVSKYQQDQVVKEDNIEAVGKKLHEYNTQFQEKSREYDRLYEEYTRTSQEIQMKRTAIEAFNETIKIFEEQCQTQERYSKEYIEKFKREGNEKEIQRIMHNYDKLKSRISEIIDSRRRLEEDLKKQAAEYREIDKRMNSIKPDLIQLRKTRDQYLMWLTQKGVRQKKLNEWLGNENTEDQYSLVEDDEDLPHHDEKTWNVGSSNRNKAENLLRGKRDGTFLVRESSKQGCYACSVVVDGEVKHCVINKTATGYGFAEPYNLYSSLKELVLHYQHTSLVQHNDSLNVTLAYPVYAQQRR
Sequence of PI3K p110 beta/p85 alpha (Homo sapiens) (P42338 whole entry partner): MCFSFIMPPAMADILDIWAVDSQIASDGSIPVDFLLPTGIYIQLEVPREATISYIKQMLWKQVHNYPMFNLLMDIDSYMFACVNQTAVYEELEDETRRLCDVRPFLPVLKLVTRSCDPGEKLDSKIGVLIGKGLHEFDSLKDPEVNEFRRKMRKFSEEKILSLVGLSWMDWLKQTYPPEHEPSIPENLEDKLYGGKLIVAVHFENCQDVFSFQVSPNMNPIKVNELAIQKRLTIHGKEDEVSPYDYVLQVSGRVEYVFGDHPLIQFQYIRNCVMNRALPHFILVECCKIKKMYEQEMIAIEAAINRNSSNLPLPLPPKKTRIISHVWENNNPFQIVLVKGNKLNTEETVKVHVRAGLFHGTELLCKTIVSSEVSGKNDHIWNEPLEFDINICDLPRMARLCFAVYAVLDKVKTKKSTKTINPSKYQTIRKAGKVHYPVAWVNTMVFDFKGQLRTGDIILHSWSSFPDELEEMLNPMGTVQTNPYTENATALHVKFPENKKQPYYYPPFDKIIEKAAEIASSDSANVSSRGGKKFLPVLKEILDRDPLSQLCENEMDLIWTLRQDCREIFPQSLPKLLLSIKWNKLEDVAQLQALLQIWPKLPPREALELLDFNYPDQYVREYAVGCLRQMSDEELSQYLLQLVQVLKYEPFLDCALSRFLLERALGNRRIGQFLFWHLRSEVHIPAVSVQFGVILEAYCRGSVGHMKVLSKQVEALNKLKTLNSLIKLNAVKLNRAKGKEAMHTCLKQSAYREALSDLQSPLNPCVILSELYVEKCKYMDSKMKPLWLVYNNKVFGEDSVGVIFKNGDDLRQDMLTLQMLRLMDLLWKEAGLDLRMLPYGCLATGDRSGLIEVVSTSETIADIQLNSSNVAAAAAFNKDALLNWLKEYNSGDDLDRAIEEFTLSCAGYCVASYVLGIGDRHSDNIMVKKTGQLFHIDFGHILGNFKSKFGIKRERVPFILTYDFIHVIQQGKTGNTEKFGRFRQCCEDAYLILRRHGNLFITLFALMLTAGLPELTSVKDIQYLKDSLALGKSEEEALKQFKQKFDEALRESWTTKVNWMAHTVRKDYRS
Sequence of Serine/threonine-protein kinase 25 (Homo sapiens) (O00506 whole entry, looked up): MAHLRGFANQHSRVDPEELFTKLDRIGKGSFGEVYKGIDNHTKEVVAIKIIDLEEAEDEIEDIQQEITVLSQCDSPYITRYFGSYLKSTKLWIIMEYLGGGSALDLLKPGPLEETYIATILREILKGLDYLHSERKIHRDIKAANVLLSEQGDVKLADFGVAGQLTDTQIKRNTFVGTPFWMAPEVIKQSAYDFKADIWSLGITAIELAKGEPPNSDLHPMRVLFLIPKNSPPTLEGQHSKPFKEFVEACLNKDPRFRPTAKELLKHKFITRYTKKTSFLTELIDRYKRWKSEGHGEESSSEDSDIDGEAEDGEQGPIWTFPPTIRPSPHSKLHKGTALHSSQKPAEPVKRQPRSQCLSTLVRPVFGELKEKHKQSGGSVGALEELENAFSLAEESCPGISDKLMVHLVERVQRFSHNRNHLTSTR
Sequence of Serine/threonine-protein kinase PLK1 (Homo sapiens) (P53350 whole entry): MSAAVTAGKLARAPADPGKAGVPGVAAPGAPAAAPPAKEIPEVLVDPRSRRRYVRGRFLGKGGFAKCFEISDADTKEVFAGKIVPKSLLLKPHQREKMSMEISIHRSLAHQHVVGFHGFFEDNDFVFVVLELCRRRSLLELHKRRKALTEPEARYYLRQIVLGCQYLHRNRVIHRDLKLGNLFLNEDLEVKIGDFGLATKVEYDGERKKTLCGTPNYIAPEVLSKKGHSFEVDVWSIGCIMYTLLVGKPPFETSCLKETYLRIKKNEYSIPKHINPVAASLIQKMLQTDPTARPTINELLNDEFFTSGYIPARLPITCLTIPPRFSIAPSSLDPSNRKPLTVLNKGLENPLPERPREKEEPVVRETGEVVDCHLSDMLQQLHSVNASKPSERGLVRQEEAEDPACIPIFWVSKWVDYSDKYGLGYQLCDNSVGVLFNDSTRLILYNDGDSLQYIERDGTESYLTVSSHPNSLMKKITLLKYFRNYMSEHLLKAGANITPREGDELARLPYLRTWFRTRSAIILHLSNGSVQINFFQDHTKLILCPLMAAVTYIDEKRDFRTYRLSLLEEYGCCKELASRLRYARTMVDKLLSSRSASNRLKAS
Sequence of Testis-specific serine/threonine-protein kinase 4 (Homo sapiens) (Q6SA08 whole entry): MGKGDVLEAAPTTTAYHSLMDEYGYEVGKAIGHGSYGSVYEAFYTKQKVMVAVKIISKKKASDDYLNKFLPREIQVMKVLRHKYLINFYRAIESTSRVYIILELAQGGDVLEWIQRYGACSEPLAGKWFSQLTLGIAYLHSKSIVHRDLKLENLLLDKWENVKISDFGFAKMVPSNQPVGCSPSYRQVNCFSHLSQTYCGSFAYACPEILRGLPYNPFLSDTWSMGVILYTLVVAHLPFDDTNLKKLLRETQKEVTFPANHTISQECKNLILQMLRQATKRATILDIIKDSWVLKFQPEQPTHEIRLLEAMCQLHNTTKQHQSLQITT
Sequence of Rho-associated protein kinase 2 (Homo sapiens) (O75116 whole entry, looked up): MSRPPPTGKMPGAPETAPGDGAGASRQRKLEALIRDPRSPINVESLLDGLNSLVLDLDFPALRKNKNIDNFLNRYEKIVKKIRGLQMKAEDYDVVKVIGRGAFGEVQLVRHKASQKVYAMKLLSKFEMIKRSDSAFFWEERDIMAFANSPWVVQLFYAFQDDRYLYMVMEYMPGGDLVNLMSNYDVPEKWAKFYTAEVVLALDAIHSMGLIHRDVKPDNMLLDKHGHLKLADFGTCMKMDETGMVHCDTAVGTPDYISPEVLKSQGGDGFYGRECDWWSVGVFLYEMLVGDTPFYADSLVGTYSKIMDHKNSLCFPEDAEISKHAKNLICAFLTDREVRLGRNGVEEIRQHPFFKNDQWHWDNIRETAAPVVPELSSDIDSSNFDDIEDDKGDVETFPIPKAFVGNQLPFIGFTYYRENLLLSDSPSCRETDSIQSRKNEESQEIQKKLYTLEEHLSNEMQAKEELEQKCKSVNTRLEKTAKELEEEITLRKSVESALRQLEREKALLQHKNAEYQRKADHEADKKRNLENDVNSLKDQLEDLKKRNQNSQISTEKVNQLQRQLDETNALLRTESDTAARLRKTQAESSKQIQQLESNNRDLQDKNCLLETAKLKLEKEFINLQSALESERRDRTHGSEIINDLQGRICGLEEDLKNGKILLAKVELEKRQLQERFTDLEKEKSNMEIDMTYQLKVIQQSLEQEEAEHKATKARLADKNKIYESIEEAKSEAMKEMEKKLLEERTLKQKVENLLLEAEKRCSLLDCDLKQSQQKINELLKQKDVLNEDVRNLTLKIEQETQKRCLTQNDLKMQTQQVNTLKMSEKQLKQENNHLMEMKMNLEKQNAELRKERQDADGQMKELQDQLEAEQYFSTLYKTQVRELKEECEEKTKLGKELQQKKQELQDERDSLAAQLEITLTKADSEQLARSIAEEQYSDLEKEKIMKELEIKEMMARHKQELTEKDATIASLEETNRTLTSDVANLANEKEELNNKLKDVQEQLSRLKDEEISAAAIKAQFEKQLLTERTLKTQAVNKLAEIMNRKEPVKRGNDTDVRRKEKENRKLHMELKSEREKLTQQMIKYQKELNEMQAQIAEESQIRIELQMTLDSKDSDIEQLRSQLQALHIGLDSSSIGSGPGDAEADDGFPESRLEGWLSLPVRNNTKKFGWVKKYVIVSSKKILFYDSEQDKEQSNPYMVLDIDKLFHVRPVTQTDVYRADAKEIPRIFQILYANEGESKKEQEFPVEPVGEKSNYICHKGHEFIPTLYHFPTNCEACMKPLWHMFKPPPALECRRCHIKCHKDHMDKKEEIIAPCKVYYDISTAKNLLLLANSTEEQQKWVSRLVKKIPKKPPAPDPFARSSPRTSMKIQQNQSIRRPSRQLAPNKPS

CN1CCN(c2cnc3c(C4CCN(C(=O)c5ccc(OC(F)(F)F)cc5N)CC4)ncnc3c2)CC1 [BAY-885]
inactive: [1] 98% | [2] 87% | [3] 111% | [4] 91% | [5] 115% | [6] 94% | [7] 108% | [8] 115%
